Molecular target: T1, c-kit (Homo sapiens, UniProt P10721)
T1 construct: human Mo7e cells which endogenously express c-kit; endogenous in cells; host or cells: human Mo7e cells (promegakaryocytic leukemia line), stimulated with human recombinant SCF
Test: Mo7e cell proliferation assay (SCF dependent proliferation)
Type: cell-based
Settings: Mo7e cells stimulated with human recombinant SCF, 48 hours
Procedure: Compounds of Formula (I) and Formula (II) provided herein were assayed to measure their capacity to inhibit c-kit and PDGFR kinases using the appropriate assay described below: c-Kit inhibition was evaluated using the Mo7e cell proliferation assay, and PDGFR inhibition was evaluated using the Rat A10 cell proliferation assay and the Human TG/HA-VSMC cell proliferation assay.
The compounds of Table 1 and Table 2 were tested for inhibition of SCF dependent proliferation using human Mo7e cells which endogenously express c-kit in a 384 well format. […] After 48 hours of incubation at 37° C., cell viability was measured by adding 25 uL of CellTiter Glo (Promega) to the cells and the luminescence was measured by a CLIPR CCD camera (Molecular Devices).
The IC50 value is given as that concentration of the test compound in question that provoke a response halfway between the baseline and maximum responses.

T1 sequence (P10721 26-976): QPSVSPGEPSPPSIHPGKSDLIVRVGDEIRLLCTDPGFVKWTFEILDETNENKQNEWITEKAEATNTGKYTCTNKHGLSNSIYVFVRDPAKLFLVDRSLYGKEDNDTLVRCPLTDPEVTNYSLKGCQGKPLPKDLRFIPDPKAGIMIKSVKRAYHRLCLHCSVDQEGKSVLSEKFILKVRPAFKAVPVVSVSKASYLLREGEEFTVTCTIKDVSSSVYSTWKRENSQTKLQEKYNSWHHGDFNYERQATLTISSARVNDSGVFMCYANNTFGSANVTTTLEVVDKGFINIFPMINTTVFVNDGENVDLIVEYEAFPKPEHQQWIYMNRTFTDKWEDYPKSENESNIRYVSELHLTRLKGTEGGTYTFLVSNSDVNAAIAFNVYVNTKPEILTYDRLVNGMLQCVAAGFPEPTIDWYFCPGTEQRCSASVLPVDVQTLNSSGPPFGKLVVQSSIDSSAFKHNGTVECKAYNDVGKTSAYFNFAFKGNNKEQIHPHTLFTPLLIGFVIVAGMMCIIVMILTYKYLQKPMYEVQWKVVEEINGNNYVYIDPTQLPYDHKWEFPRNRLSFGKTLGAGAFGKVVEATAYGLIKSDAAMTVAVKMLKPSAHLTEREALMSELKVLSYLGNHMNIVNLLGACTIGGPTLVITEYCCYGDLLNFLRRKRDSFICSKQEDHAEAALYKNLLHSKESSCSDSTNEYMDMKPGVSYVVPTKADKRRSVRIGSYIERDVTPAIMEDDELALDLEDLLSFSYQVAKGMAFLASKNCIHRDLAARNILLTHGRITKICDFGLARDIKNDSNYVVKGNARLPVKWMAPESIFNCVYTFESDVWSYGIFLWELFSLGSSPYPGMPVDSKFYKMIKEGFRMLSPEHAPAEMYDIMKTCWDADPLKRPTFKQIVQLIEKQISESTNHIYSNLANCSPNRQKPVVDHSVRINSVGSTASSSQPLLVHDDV

IC50 (Table 2, 1% FBS) [µM] | other results | SMILES
0.137 | – | Cc1ccc(-c2nc(-c3ccccn3)no2)cc1NC(=O)c1cnc2ccccn12 [F24, N-(2-methyl-5-(3-(pyridin-2-yl)-1,2,4-oxadiazol-5-yl)phenyl)imidazo[1,2-a]pyridine-3-carboxamide]
0.269 | – | Cc1ccc(-c2noc(Cn3cncn3)n2)cc1NC(=O)c1cnc2ccccn12 [F63, N-{2-methyl-5-[5-(1H-1,2,4-triazol-1-ylmethyl)-1,2,4-oxadiazol-3-yl]phenyl}imidazo[1,2-a]pyridine-3-carboxamide]
– | IC50 (Table 2, 20% FBS instead of 1% FBS (values marked *)): 0.104 µM | Cc1ccc(F)c(-c2noc(-c3ccc(C)c(NC(=O)c4cnc5ccccn45)c3)n2)c1 [F39, N-{5-[3-(2-fluoro-5-methylphenyl)-1,2,4-oxadiazol-5-yl]-2-methylphenyl}imidazo[1,2-a]pyridine-3-carboxamide]
– | IC50 (Table 1, 1% FBS): 0.061 µM | Cc1nc(C(F)(F)F)c(-c2nc(-c3ccc(C)c(NC(=O)c4cnc5ccccn45)c3)no2)s1 [F23, N-(2-methyl-5-{5-[2-methyl-4-(trifluoromethyl)-1,3-thiazol-5-yl]-1,2,4-oxadiazol-3-yl}phenyl)imidazo[1,2-a]pyridine-3-carboxamide]

Reference: patent US20150051206A1, “COMPOUNDS AND COMPOSITIONS AS C-KIT KINASE INHIBITORS” (IRM LLC, priority 2011, published 2015)
